In patent US8153791B2, “Substituted pyrimidinyl oxime kinase inhibitors” (Janssen Pharmaceutica N.V., priority 2005, dated 2012):
Where two headings read alike, the source gives them in different places.

How the values were obtained:
[1] = tested on: HeLa cervical adenocarcinoma; assay: In vitro cell proliferation inhibition, HeLa; format: cell-based; conditions: Homo sapiens, read-out: HeLa IC50
Excerpt: (§1) The ability of a test compound to inhibit unregulated in vitro cell proliferation may be determined by measuring incorporation of ^14C-labelled thymidine into newly synthesized DNA within cell lines derived from carcinomas originating from several tissues. Accordingly, the effect of a test compound on proliferation of cells with a variety of phenotypes may be determined.
(§2) Carcinoma cell lines used include the HeLa cervical adenocarcinoma from the American Type Culture Collection (ATCC Cat. #CCL2), SK-OV-3 ovarian carcinoma (ATCC Cat. #HTB-77), MCF-7 breast carcinoma (ATCC Cat. #HTB-22), BT474 breast carcinoma (ATCC Cat. #HTB-20), SKBR3 breast carcinoma (ATCC Cat. #HTB-30), A431 epidermoid carcinoma (ATCC Cat. #CRL-1555) and NCI-N87 gastric carcinoma (ATCC Cat. #CRL-5822).
(§3) The carcinoma cells are trypsinized and counted. The cells (3000-8000 count) are added to each well of a 96-well CytoStar tissue culture treated scintillating microplate (Amersham #RPNQ0160) in complete medium (100 μL) and the plate is then incubated in complete medium for 24 hrs at 37° C. in an inert atmosphere containing 5% CO2.
(§4) Test compound (1 μL) in 100% DMSO is added to the plate test-wells with DMSO only added to control-wells. The plate is incubated in complete medium for a second 24 hr period at 37° C. in an atmosphere containing 5% CO2.
(§5) An aliquot of a solution of Methyl ^14C-thymidine (56 mC/mmol) (NEN #NEC568 or Amersham #CFA532) and complete medium (20 μL to provide 0.2 μCi/well) is then added to each well and the plate is incubated for a third 24 hr period at 37° C. in an atmosphere containing 5% CO2.
(§6) The plate contents are then discarded, the plate is washed twice with PBS (200 μL) and then PBS (200 μL) is added to each well. The plate is sealed and the degree of methyl ^14C-thymidine incorporation is quantified on a Packard Top Count.
(§7) Cell proliferation of the Hela cell line was measured using the ATP-Lite method as described in the ATP Lite Kit (Perkin-Elmer Kit Number 6106941) or the C^14 method as described above. Cell proliferation of the other cell lines was measured using the C^14 method.
(§8) The term “NT” means that the compound indicated was not tested in a particular cell line. The lack of such testing is not intended to imply a belief that the compound is not otherwise active in a particular cell line or any other cell line not tested.

[2] = tested on: SK-OV-3 ovarian carcinoma; assay: In vitro cell proliferation inhibition, SK-OV-3; format: cell-based; conditions: Homo sapiens; SK-OV-3 cells, 14C-thymidine incorporation
Excerpt: as §1, §2, §3, §4, §5, §6, §7, §8

MCF-7 breast carcinoma = assay: In vitro cell proliferation inhibition, MCF-7; format: cell-based; conditions: Homo sapiens, MCF7; MCF-7 cells, 14C-thymidine incorporation
Excerpt: as §1, §2, §3, §4, §5, §6, §7, §8

[3] = tested on: NCI-N87 gastric carcinoma; assay: In vitro cell proliferation inhibition, NCI-N87; format: cell-based; conditions: Homo sapiens
Excerpt: as §1, §2, §3, §4, §5, §6, §7, §8

EGFR = biological target: T1, EGFR (Homo sapiens, UniProt P00533); assay: EGFR Kinase Assay; format: biochemical;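 further: recombinant GST-tagged EGFR expressed in Sf9 cells, phosphorylating biotinylated polyGluTyr with γ-33P ATP on Streptavidin Flashplates, 1 h at 30 °C, scintillation counting, inhibition relative to plate maximum and minimum signals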
T1 construct: The intracellular portion of EGFR started at nucleotide 2189 (corresponding to amino acid 667) and ended at the termination codon; made in house; host or cells: Sf9 insect cells (baculovirus)

HER-2 = biological target: T2, HER-2 (Homo sapiens, UniProt P04626); assay: HER-2 Kinase Assay; format: biochemical; conditions: read-out: HER2 IC50;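 further: HER2 kinase reaction read by scintillation counting, inhibition scaled between maximum and minimum signals set on each plate, IC50 from inhibition against log concentration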
T2 construct: purchased Proqinase (Freiburg, Germany)

BT474 breast carcinoma = assay: In vitro cell proliferation inhibition, BT474; format: cell-based; conditions: Homo sapiens
Excerpt: as §1, §2, §3, §4, §5, §6, §7, §8

SKBR3 breast carcinoma = assay: In vitro cell proliferation inhibition, SKBR3; format: cell-based; conditions: Homo sapiens
Excerpt: as §1, §2, §3, §4, §5, §6, §7, §8

[4] = tested on: A431 epidermoid carcinoma; assay: In vitro cell proliferation inhibition, A431; format: cell-based; conditions: Homo sapiens
Excerpt: as §1, §2, §3, §4, §5, §6, §7, §8

[5] = HeLa cell line, ATP-Lite method or C14 thymidine method
[6] = NCI-N87, N87 cells, 14C-thymidine incorporation, read-out: IC50 N87
[7] = BT-474, BT474 cells, 14C-thymidine incorporation, read-out: IC50 BT474
[8] = SK-BR-3, SKBR3 cells, 14C-thymidine incorporation, read-out: IC50 SKBR3
[9] = A-431, A431 cells, 14C-thymidine incorporation, read-out: IC50 A431

T2 sequence (P04626 679-1255): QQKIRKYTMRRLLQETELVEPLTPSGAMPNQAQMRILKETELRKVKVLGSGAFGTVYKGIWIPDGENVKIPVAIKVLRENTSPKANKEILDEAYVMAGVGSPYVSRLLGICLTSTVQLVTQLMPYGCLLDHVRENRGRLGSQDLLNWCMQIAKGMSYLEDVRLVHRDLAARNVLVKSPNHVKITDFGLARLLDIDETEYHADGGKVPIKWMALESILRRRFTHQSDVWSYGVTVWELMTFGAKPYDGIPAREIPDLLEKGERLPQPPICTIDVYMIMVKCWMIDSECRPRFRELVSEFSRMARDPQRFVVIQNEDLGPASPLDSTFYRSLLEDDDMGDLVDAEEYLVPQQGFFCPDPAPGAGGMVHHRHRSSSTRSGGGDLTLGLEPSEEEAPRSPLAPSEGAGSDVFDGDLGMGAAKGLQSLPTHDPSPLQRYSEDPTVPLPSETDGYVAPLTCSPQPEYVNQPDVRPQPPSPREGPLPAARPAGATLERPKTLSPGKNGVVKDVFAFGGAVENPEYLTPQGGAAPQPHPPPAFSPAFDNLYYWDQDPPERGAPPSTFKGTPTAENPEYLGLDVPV
T1 sequence (P00533 669-1210 limits assumed): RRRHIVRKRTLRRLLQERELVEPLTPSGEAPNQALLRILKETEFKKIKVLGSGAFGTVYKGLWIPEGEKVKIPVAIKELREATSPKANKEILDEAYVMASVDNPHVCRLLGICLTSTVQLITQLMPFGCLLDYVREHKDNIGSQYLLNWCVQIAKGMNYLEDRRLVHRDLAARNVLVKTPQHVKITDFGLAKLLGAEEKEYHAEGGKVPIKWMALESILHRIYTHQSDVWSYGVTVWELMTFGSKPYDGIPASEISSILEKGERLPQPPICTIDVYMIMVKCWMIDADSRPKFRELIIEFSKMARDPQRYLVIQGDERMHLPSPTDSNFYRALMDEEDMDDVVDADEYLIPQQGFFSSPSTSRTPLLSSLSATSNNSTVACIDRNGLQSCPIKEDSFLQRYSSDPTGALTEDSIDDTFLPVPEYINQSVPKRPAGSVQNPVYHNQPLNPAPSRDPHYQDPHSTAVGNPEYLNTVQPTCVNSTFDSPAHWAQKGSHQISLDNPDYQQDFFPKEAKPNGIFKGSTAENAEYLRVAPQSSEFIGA

IC50 [1, 5] [µM] | IC50 [2] [µM] | IC50 (MCF-7 breast carcinoma) [µM] | IC50 [3, 6] [µM] | IC50 (EGFR) [µM] | IC50 (HER-2) [µM] | IC50 (BT474 breast carcinoma; [7]) [µM] | IC50 (SKBR3 breast carcinoma; [8]) [µM] | IC50 [4, 9] [µM] | Structure (SMILES) | IC50 ([1]; HeLa) [µM] | IC50 (BT474 breast carcinoma; BT-474, read-out: IC50 BT474) [µM] | IC50 (SKBR3 breast carcinoma; SK-BR-3, read-out: IC50 SKBR3) [µM] | IC50 ([4]; A-431, read-out: IC50 A431) [µM] | IC50 ([3]; NCI-N87, read-out: IC50 N87) [µM]
35 | 100 | 86.6 | 0.7 | – | – | – | – | – | CO/N=C/c1c(N)ncnc1Nc1ccc(OCc2ccccc2)c(Cl)c1 [Cpd 9, (5E)-4-amino-6-(4-benzyloxy-3-chloro-phenylamino)-pyrimidine-5-carbaldehyde O-methyl-oxime] | – | – | – | – | –
10 | 19.1 | 2.5 | 0.04 | 0.02 | 0.05 | 0.03 | 0.1 | 1.1 | Nc1ncnc(Nc2ccc3c(cnn3Cc3cccc(F)c3)c2)c1/C=N/OCCN1CCOCC1 [Cpd 19, (5E)-4-amino-6-[1-(3-fluoro-benzyl)-1H-indazol-5-ylamino]-pyrimidine-5-carbaldehyde O-(2-morpholin-4-yl-ethyl)-oxime] | – | – | – | – | –
3.5 | 3.2 | 3.8 | 0.2 | – | – | – | – | – | CO/N=C/c1c(N)ncnc1Nc1ccc2c(ccn2Cc2cccc(F)c2)c1 [Cpd 34, (5E)-4-amino-6-[1-(3-fluoro-benzyl)-1H-indol-5-ylamino]-pyrimidine-5-carbaldehyde O-methyl-oxime] | – | – | – | – | –
100 | – | – | 10 | – | – | 0.1 | 0.3 | 100 | Nc1ncnc(Nc2ccc3c(cnn3Cc3cccc(F)c3)c2)c1/C=N/OCc1ccccc1 [Cpd 46, (5E)-4-amino-6-[1-(3-fluoro-benzyl)-1H-indazol-5-ylamino]-pyrimidine-5-carbaldehyde O-benzyl-oxime] | – | – | – | – | –
10 | 10 | 10 | 0.6 | – | – | – | – | – | CO/N=C/c1c(N)ncnc1Nc1ccc2[nH]c(Cc3cccc(F)c3)nc2c1 [Cpd 60, (5E)-4-amino-6-[2-(3-fluoro-benzyl)-1H-benzoimidazol-5-ylamino]-pyrimidine-5-carbaldehyde O-methyl-oxime] | – | – | – | – | –
40.1 | 10 | 30.7 | 0.001 | 0.008 | 0.009 | – | – | – | Nc1ncnc(Nc2ccc(OCc3cccc(F)c3)c(Cl)c2)c1/C=N/OCCCO [Cpd 75, (5E)-4-amino-6-[3-chloro-4-(3-fluoro-benzyloxy)-phenylamino]-pyrimidine-5-carbaldehyde O-(3-hydroxy-propyl)-oxime] | – | – | – | – | –
59.4 | 24.1 | 10 | 0.3 | 0.01 | 0.03 | 0.2 | 0.3 | 1.8 | Nc1ncnc(Nc2ccc(OCc3ccccc3)c(Cl)c2)c1/C=N/OCCCO [Cpd 76, (5E)-4-amino-6-(4-benzyloxy-3-chloro-phenylamino)-pyrimidine-5-carbaldehyde O-(3-hydroxy-propyl)-oxime] | – | – | – | – | –
4.9 | – | – | 0.3 | 0.03 | 0.07 | 0.3 | 0.5 | 3.6 | Nc1ncnc(Nc2ccc3c(cnn3Cc3cccc(F)c3)c2)c1/C=N/OCCCN1CCOCC1 [Cpd 87, (5E)-4-amino-6-[1-(3-fluoro-benzyl)-1H-indazol-5-ylamino]-pyrimidine-5-carbaldehyde O-(3-morpholin-4-yl-propyl)-oxime] | – | – | – | – | –
10.9 | – | – | – | 0.009 | 0.02 | – | – | – | Nc1ncnc(Nc2ccc3c(ccn3Cc3cccc(F)c3)c2)c1/C=N/O [Cpd 88, (5E)-4-amino-6-[1-(3-fluoro-benzyl)-1H-indol-5-ylamino]-pyrimidine-5-carbaldehyde oxime] | – | – | – | – | –
9.4 | 5.4 | 10 | 0.2 | 0.007 | 0.03 | 0.2 | 0.3 | 1.3 | Nc1ncnc(Nc2ccc3c(ccn3Cc3cccc(F)c3)c2)c1/C=N/OCCCO [Cpd 91, (5E)-4-amino-6-[1-(3-fluoro-benzyl)-1H-indol-5-ylamino]-pyrimidine-5-carbaldehyde O-(3-hydroxy-propyl)-oxime] | – | – | – | – | –
4.7 | – | – | 0.2 | 0.05 | 0.03 | 0.2 | 0.4 | 3.1 | Nc1ncnc(Nc2ccc3c(cnn3Cc3cccc(F)c3)c2)c1/C=N/OCCCN1CCCCC1 [Cpd 92, (5E)-4-amino-6-[1-(3-fluoro-benzyl)-1H-indazol-5-ylamino]-pyrimidine-5-carbaldehyde O-(3-piperidin-1-yl-propyl)-oxime] | – | – | – | – | –
100 | – | – | – | 0.02 | 0.1 | – | – | – | Nc1ncnc(Nc2ccc(OCc3cc(F)cc(F)c3)c(Cl)c2)c1/C=N/O [Cpd 98, (5E)-4-amino-6-[3-chloro-4-(3,5-difluoro-benzyloxy)-phenylamino]-pyrimidine-5-carbaldehyde oxime] | – | – | – | – | –
100 | – | – | 100 | 0.07 | 0.2 | 10 | 100 | 100 | Nc1ncnc(Nc2ccc(OCc3cc(F)cc(F)c3)c(Cl)c2)c1/C=N/OCCN1CCOCC1 [Cpd 99, (5E)-4-amino-6-[3-chloro-4-(3,5-difluoro-benzyloxy)-phenylamino]-pyrimidine-5-carbaldehyde O-(2-morpholin-4-yl-ethyl)-oxime] | – | – | – | – | –
1.4 | – | – | 0.2 | 0.04 | 0.14 | 0.9 | 0.7 | 0.001 | Nc1ncnc(Nc2ccc3c(ccn3Cc3cccc(F)c3)c2)c1/C=N/OCCN1CCCCC1 [Cpd 102, (5E)-4-amino-6-[1-(3-fluoro-benzyl)-1H-indol-5-ylamino]-pyrimidine-5-carbaldehyde O-(2-piperidin-1-yl-ethyl)-oxime] | – | – | – | – | –
10 | – | – | – | 0.2 | 1.1 | – | – | – | Nc1ncnc(Nc2ccc(F)c(Cl)c2)c1/C=N/OCCN1CCOCC1 [Cpd 108] | – | – | – | – | –
100 | – | – | 100 | 0.03 | 0.1 | 100 | 100 | 100 | N#Cc1c(N)ncnc1Nc1ccc(OCc2ccccc2)c(Cl)c1 [Cpd 118, 4-amino-6-(4-benzyloxy-3-chloro-phenylamino)-pyrimidine-5-carbonitrile] | – | – | – | – | –

Structure (SMILES) | IC50 [1, 5] [µM] | IC50 [2] [µM] | IC50 (MCF-7 breast carcinoma) [µM] | IC50 [3, 6] [µM] | IC50 (EGFR) [µM] | IC50 (HER-2) [µM] | IC50 (BT474 breast carcinoma; [7]) [µM] | IC50 (SKBR3 breast carcinoma; [8]) [µM] | IC50 [4, 9] [µM] | IC50 ([1]; HeLa) [µM] | IC50 (BT474 breast carcinoma; BT-474, read-out: IC50 BT474) [µM] | IC50 (SKBR3 breast carcinoma; SK-BR-3, read-out: IC50 SKBR3) [µM] | IC50 ([4]; A-431, read-out: IC50 A431) [µM] | IC50 ([3]; NCI-N87, read-out: IC50 N87) [µM]
CN(C)CCCO/N=C/c1c(N)ncnc1Nc1ccc2c(cnn2Cc2cccc(F)c2)c1 [Cpd 70, (5E)-4-amino-6-[1-(3-fluoro-benzyl)-1H-indazol-5-ylamino]-pyrimidine-5-carbaldehyde O-(3-dimethylamino-propyl)-oxime] | – | – | – | – | 0.02 | 0.02 | – | – | – | 10 | 0.1 | 0.4 | 14.2 | 0.3
Nc1ncnc(Nc2ccc3c(cnn3Cc3cccc(F)c3)c2)c1/C=N/OCCCO [Cpd 85, (5E)-4-amino-6-[1-(3-fluoro-benzyl)-1H-indazol-5-ylamino]-pyrimidine-5-carbaldehyde O-(3-hydroxy-propyl)-oxime] | – | – | – | – | 0.02 | 0.02 | – | – | – | 15.6 | – | – | – | –
